Data on 23 compounds can be found in patent US9145354B2, “Pharmaceutical compounds” (priority 2011, dated 2015).

One may read the EC50 as the concentration giving half of the maximal effect. In general, CC50 refers to the concentration at which the toxic effect on the cells reaches its halfway point. The low end stands for greater toxicity to the cells, the high end for lower toxicity to the cells. In general, inhibition refers to the percentage by which the read-out fell short of the control. A higher inhibition goes with a response far below the control.

One data set deals with full length NS3/4a (Hepatitis C virus genotype 1b (isolate BK) (HCV), UniProt P26663). In words: NS3 Protease Assay (Example A), FRET-based. Type of data set: biochemical. In outline:
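Initial rates were taken from fluorescence progress curves over 30 min at room temperature, and IC50 was fitted across replicates. In-house full-length NS3/4a cleaved a FRET peptide (5-FAMsp/QXL520) from the NS4A/B site. Medium: 50 mM Tris pH8, 20 mM DTT, 1% CHAPS, 10% glycerol, 5% DMSO.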

Data set [1] relates to HCV subgenomic replicon in Huh-7 cells. In words: Replicon Assay (Example B), luciferase readout EC50. The settings on record: luciferase readout, upper value of the cell pair, read-out: Assay B EC50. Type of data set: cell-based. The method, then: The activities of compounds of the invention against HCV in a cellular environment were analysed using a replicon assay as described below.
(§1) Thus, Huh-7 cells persistently infected with an HCV-RNA construct (Bartenschlager, R. Hepatitis C replicons: potential role for drug development. Nature Rev. Drug Discov. 1, 911-916 (2002)) comprising: 5′ and 3′ non-translated regions (NTR); the non-structural genes NS3 to NS5b; as well as the G418 drug resistance gene, neomycin, (for selection of cells carrying HCV replicon RNA) fused to the firefly Luciferase reporter gene (pFKI3889Iuc-ubi-neo/NS3-3′/ET) were used to determine the cell based antiviral activity of compounds using luciferase activity as an indirect readout of HCV RNA load. In this assay […] huh-7 cells persistently infected with the HCV subgenomic replicon construct above were plated/well in a 96 well tissue culture plate. The cells were allowed to attach overnight in DMEM medium supplemented with 10% FBS 1% NEAA, and 250 μg/ml gentamicin. The following day the medium was replaced with 200 μl/well of fresh medium as described above lacking gentamicin. Semilog dilutions of compounds in medium were then added to triplicate wells (non-edge) of the cultured cells to give a 0.1% DMSO final concentration. Plates were then incubated at 37° C. in an atmosphere of 5% CO2 and air for 72 h. […] The plate was then read at 535 nm (excitation) and 590 nm (emission) on a SpectraMax Gemini reader (Molecular Devices) to determine the number of viable cells by measuring the conversion of rezasurin (Alamar blue) to resorufin in response to mitochondrial activity. In order to determine the antiviral effect of these compounds EC50 values were determined by measuring the luciferase activity of the cells. Alamar blue solution was removed from the wells and replaced with 100 μl/well of medium along with 100 μl/well of Bright-Glo reagent and incubated at room temperature for 5 minutes before transferring 100 μl/well to a white bottom 96 well plate to read in a luminometer as described in the Bright-Glo Luciferase Assay System protocol (promega).
On the technique in general: In antiviral work, replicon cells carry a viral genome segment that copies itself.

A short description of data set [2]: Replicon Assay (Example B), Alamar Blue cytotoxicity CC50. Type of data set: cell-based. The settings on record: human, lower value of the cell pair.
Text: as §1

The mark [3] stands for this setting: HCV NS3 protease assay, full length NS3/4a, read-out: Assay A IC50 (μM) average.
Where [4] appears, read: Hepatitis C virus, Huh-7, replicon assay.
[5] abbreviates: read-out: IC50 against the protease activity of the full length NS3/4a.
[6] abbreviates: stated as IC50 less than 30 μM or at least 40% inhibition at a concentration of 100 μM, read-out: IC50 against the protease activity of the full length NS3/4a.

Where two headings read alike, the source gives them in different places.

Chain of full length NS3/4a (P26663 1027-1657): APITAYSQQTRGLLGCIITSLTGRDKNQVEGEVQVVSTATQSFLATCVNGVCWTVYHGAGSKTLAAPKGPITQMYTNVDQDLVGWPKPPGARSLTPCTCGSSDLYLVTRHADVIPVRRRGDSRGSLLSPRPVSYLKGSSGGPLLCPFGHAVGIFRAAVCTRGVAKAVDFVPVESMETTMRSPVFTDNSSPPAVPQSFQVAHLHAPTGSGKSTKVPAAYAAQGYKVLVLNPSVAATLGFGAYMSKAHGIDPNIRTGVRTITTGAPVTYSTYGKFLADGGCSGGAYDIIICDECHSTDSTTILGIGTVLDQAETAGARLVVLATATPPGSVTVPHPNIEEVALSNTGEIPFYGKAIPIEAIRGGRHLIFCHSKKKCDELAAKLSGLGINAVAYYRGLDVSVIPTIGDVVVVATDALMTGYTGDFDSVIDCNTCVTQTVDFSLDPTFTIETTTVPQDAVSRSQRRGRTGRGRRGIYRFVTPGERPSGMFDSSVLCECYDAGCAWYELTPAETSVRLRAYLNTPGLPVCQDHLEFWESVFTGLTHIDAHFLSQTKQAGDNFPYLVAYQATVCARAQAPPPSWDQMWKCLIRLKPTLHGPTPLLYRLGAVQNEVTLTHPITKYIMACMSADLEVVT

On to `CC[C@@H](NCCO)c1ccc(Cl)c(C(=O)c2ccccc2)c1F` [Example 176, 2-{[(1R)-1-(3-benzoyl-4-chloro-2-fluorophenyl)propyl]amino}ethan-1-ol], for which the IC50 on full length NS3/4a (setting [3]) worked out at 0.29 µM. Moreover, the EC50 in data set [1] (setting [4]) was more than 3000 nM. Also, the CC50 at 72 h in data set [2] was more than 3000 nM.
For the compound `CC[C@@H](NCCC(N)=O)c1ccc(Cl)c(C(=O)c2cccnc2)c1F` [Example 162, 3-{[(1R)-1-{4-Chloro-2-fluoro-3-[(pyridin-3-yl)carbonyl]phenyl}propyl]amino}propanamide], the IC50 on full length NS3/4a (setting [3]) was 0.59 µM; at full length NS3/4a (setting [5]), less than 1 µM. Moreover, the concentration for a half-maximal effect (EC50) in data set [1] (setting [4]) was more than 3000 nM. In data set [2], the CC50 at 72 h is more than 3000 nM.
`CC[C@@H](N[C@@H](C)CC(N)=O)c1ccc(Cl)c(C(=O)c2ccc(N)c(Cl)c2)c1F` [Example 234, (3S)-3-{[(1R)-1-{3-[(4-amino-3-chlorophenyl)carbonyl]-4-chloro-2-fluorophenyl}propyl]amino} butanamide]: the IC50 was 0.14 µM at full length NS3/4a (setting [3]) and less than 1 µM at full length NS3/4a (setting [5]). For the same compound, the EC50 in data set [1] (setting [4]) was 2.8 nM. Further, the CC50 at 72 h in data set [2] was more than 1000 nM.
Taken in the same sequence, the figures for `CC[C@@H](N[C@@H](C)CC(N)=O)c1ccc(Cl)c(C(=O)c2ccc(C(=O)O)cc2)c1F` [Example 144, 4-({3-[(1R)-1-{[(2S)-1-Carbamoylpropan-2-yl]amino}propyl]-6-chloro-2-fluorophenyl}carbonyl)-benzoic acid] were 1.2 µM, 1 to 5 µM, more than 3000 nM and more than 3000 nM.
In the case of `CC[C@@H](N[C@@H](C)CC(N)=O)c1ccc(Cl)c(C(=O)c2cc[n+]([O-])cc2)c1F` [Example 142, (S)-3-{(R)-1-[4-Chloro-2-fluoro-3-(1-oxy-pyridine-4-carbonyl)-phenyl]-propylamino}-butyramide], the IC50 was 0.3 µM on full length NS3/4a (setting [3]) and less than 1 µM on full length NS3/4a (setting [5]). For the same compound, the concentration giving a half-maximal response (EC50) in data set [1] (setting [4]) was more than 3000 nM. In data set [2], the half-maximal cytotoxic concentration (CC50) at 72 h is more than 3000 nM.
In the case of `COc1cc(C(=O)c2c(Cl)ccc([C@H](N[C@@H](C)CC(N)=O)C3CC3)c2F)ccc1C#N` [Example 275, (3S)-3-{[(R)-{4-chloro-3-[(4-cyano-3-methoxyphenyl)carbonyl]-2-fluorophenyl}(cyclopropyl)methyl]amino}butanamide], on full length NS3/4a (setting [3]), the IC50 turned out to be 0.13 µM. In data set [1] (setting [4]), the EC50 is 6.7 nM. Further, the cytotoxic concentration (CC50) at 72 h in data set [2] was more than 3000 nM.
With `CC[C@@H](N)c1ccc(Cl)c(C(=O)c2ccc(C#N)cc2)c1F` [Example 9, 4-({3-[(1R)-1-aminopropyl]-6-chloro-2-fluorophenyl}carbonyl)-benzonitrile], the IC50 is 0.076 µM at full length NS3/4a (setting [3]) and less than 1 µM at full length NS3/4a (setting [5]). The EC50 in data set [1] (setting [4]) is more than 3000 nM. Further, the CC50 at 72 h in data set [2] is more than 3000 nM.
As for `CCOC(=O)c1cnn(-c2ccc(C(=O)c3c(Cl)ccc([C@H](N)CC)c3F)cn2)c1` [Example 41, ethyl 1-[5-({3-[(1R)-1-aminopropyl]-6-chloro-2-fluorophenyl}carbonyl)pyridin-2-yl]-1H-pyrazole-4-carboxylate], the IC50 is 1.6 µM at full length NS3/4a (setting [3]) and 1 to 5 µM on full length NS3/4a (setting [5]). In addition, the EC50 in data set [1] (setting [4]) is 9 nM.
As to `CC[C@@H](N)c1ccc(Cl)c(C(=O)c2ccc(N)c(C#N)c2)c1F` [Example 72, 2-Amino-5-[3-((R)-1-amino-propyl)-6-chloro-2-fluoro-benzoyl]-benzonitrile], in data set [1] (setting [4]), the EC50 is 32 nM.
In the case of `CCC(NC1CCCC1C(N)=O)c1ccc(Cl)c(C(=O)c2ccc(N)nc2)c1F` (racemic) [Example 161, 2-{[1-{3-[(6-aminopyridin-3-yl)carbonyl]-4-chloro-2-fluorophenyl}propyl]amino} cyclopentane-1-carboxamide], in data set [1] (replicon assay), the half-maximal effective concentration (EC50) was more than 10000 nM.
As for `CCC(NC1CCCC1C(N)=O)c1ccc(Cl)c(C(=O)c2ccc(N)nc2)c1F` (racemic) [Example 125, 2-{[1-{3-[(6-aminopyridin-3-yl)carbonyl]-4-chloro-2-fluorophenyl}propyl]amino} cyclopentane-1-carboxamide], the concentration giving a half-maximal response (EC50) in data set [1] (replicon assay) was 79 nM.
With `[2H]C([2H])([2H])C([2H])([2H])[C@@H](N[C@@H](C)CC(N)=O)c1ccc(Cl)c(C(=O)c2ccc(N)c(C)c2)c1F` [Example 268, (3S)-3-{[(1R)-1-{3-[(4-amino-3-methylphenyl)carbonyl]-4-chloro-2-fluorophenyl}(2,2,3,3,3-deutero)propyl]amino}-butanamide], the IC50 on full length NS3/4a (setting [3]) is 0.19 µM; at full length NS3/4a (setting [5]), less than 1 µM. Moreover, the concentration for a half-maximal effect (EC50) in data set [1] (setting [4]) was 16 nM.
Consider `CC[C@@H](N)c1ccc(Cl)c(C(=O)c2ccc(N)c(Cl)c2)c1F` [Example 74, (4-Amino-3-chloro-phenyl)-[3-((R)-1-amino-propyl)-6-chloro-2-fluoro-phenyl]-methanone], for which the EC50 in data set [1] (setting [4]) was determined as 32 nM.
On full length NS3/4a (@ 0.01 uM), `C[C@@H](CC(=O)NCCN)NCc1ccc(Cl)c(C(=O)c2ccccc2)c1F` [Example 282, (3S)—N-(2-aminoethyl)-3-{[(3-benzoyl-4-chloro-2-fluorophenyl)methyl]-amino}butanamide] had an inhibition at 0.01 µM of 65%. Besides, the concentration giving a half-maximal response (EC50) in data set [1] (setting [4]) came to 3200 nM.
As for `CCC(NC1CCCC1C(N)=O)c1ccc(Cl)c(C(=O)c2ccc(N)nc2)c1F` (single isomer, unassigned) [Example 125, 2-{[1-{3-[(6-aminopyridin-3-yl)carbonyl]-4-chloro-2-fluorophenyl}propyl]amino} cyclopentane-1-carboxamide], the IC50 is 0.29 µM on full length NS3/4a (setting [3]) and less than 1 µM at full length NS3/4a (setting [5]). In data set [2], this compound displayed a cytotoxic concentration (CC50) at 72 h of more than 3000 nM.
With `N[C@@H](c1ccc(Cl)c(C(=O)c2cccnc2)c1F)C1CC1` [Example 28, (R)-{4-chloro-2-fluoro-3-[(pyridin-3-yl)carbonyl]phenyl}(cyclopropyl)methanamine], the IC50 at full length NS3/4a (setting [3]) was 1.5 µM; at full length NS3/4a (setting [5]), 1 to 5 µM.
On the same counts, the results for `CC[C@@H](N[C@@H](C)CC(N)=O)c1ccc(Cl)c(C(=O)c2cccc(C(=O)O)c2)c1F` [Example 122, 3-({3-[(1R)-1-{[(2S)-1-carbamoylpropan-2-yl]amino}propyl]-6-chloro-2-fluorophenyl}carbonyl)-benzoic acid] are 1.4 µM and 1 to 5 µM.
Take `CC[C@@H](N[C@H](C)CC(=O)NCCO)c1ccc(Cl)c(C(=O)c2ccc(N)nc2)c1F` [Example 243, (3R)-3-{[(1R)-1-{3-[(6-aminopyridin-3-yl)carbonyl]-4-chloro-2-fluorophenyl}propyl]amino}-N-(2-hydroxyethyl)butanamide]: the IC50 at full length NS3/4a (setting [3]) turned out to be 0.43 µM.
With `CC[C@@H](N)c1ccc(Cl)c(C(=O)c2cncc(N)c2)c1F` [Example 45, 5-({3-[(1R)-1-aminopropyl]-6-chloro-2-fluorophenyl}carbonyl)pyridin-3-amine], the inhibition at 10 µM against full length NS3/4a is 50%. At full length NS3/4a (setting [6]), the IC50 is less than 30 µM.
On to `CC[C@@H](N[C@@H](C)CC(N)=O)c1ccc(Cl)c(C(=O)c2cnc(NC)cn2)c1F` [Example 192, (3S)-3-{[(1R)-1-(4-chloro-2-fluoro-3-{[5-(methylamino)-pyrazin-2-yl]carbonyl}-phenyl)propyl]-amino}butanamide], for which the values for the IC50 on full length NS3/4a (setting [3]) and at full length NS3/4a (setting [5]) were 0.63 µM and less than 1 µM, respectively.
For the compound `CC[C@@H](N[C@H](C)CC(N)=O)c1ccc(Cl)c(C(=O)c2ccc(NC)nc2)c1F` [Example 208, (3R)-3-{[(1R)-1-(4-chloro-2-fluoro-3-{[6-(methylamino)pyridin-3-yl]carbonyl}phenyl)propyl]amino}butanamide], the IC50 was 3.1 µM on full length NS3/4a (setting [3]) and 1 to 5 µM on full length NS3/4a (setting [5]).
For the compound `CC[C@@H](N[C@@H](C)c1cn[nH]c1)c1ccc(Cl)c(C(=O)c2cccnc2)c1F` [Example 301, [(1R)-1-{4-chloro-2-fluoro-3-[(pyridin-3-yl)carbonyl]phenyl}propyl] [(1S)-1-(1H-pyrazol-4-yl)ethyl]amine], testing at 10 µM on full length NS3/4a gave an inhibition of 65%. Also, the IC50 on full length NS3/4a (setting [6]) was less than 30 µM.
With `CCC(NC1CCCC1C(N)=O)c1ccc(Cl)c(C(=O)c2ccc(N)nc2)c1F` (racemic) [Example 127, 2-{[1-{3-[(6-aminopyridin-3-yl)carbonyl]-4-chloro-2-fluorophenyl}propyl]amino} cyclopentane-1-carboxamide], the EC50 in data set [1] (replicon assay) was more than 10000 nM.
